Measurements published in ChEMBL document CHEMBL4425097, “Adrenomedullin 2.0: Adjusting Key Levers for Metabolic Stability” (J Med Chem, 2016).
Calls of active or inactive are those of the source. The rule behind the calls is not given here. Where a SMILES comes first, the peptide text is derived from it. Bridges are numbered along the chain shown (N, C = ends).

target: Adrenomedullin receptor AM1; CALCRL/RAMP2 (Homo sapiens) (UniProt O60895+Q16602); experiment: Agonist activity at eYFP-tagged CLR/eCFP-tagged RAMP2-derived AM1 receptor (unknown origin) expressed in HEK293 cells assessed as cAMP accumulation after 3 hrs by ONE-Glo substrate-based luminescence assay; assay type: functional, cell-based

Activity, inactive:
C[C@@H](O)[C@@H]1NC(=O)CNC(=O)[C@H](Cc2ccccc2)NC(=O)[C@H](CCCNC(=N)N)NC(=O)[C@@H](NC(=O)CNC(=O)CN)CSSC[C@@H](C(=O)O)NC1=O (H-GGCRFGTC-OH; disulfide 3-8)
CC[C@H](C)[C@H](NC(=O)[C@H](CCC(N)=O)NC(=O)[C@H](Cc1cnc[nH]1)NC(=O)[C@H](C)NC(=O)[C@H](CC(C)C)NC(=O)[C@H](CCCCN)NC(=O)[C@H](CCC(N)=O)NC(=O)[C@@H](NC(=O)[C@@H](NC(=O)[C@@H]1CSSC[C@H](NC(=O)CNC(=O)CN)C(=O)N[C@@H](CCCNC(=N)N)C(=O)N[C@@H](Cc2ccccc2)C(=O)NCC(=O)N[C@@H]([C@@H](C)O)C(=O)N1)[C@@H](C)O)C(C)C)C(=O)N[C@@H](Cc1ccc(O)cc1)C(=O)N[C@@H](CCC(N)=O)C(=O)N[C@@H](Cc1ccccc1)C(=O)N[C@H](C(=O)N[C@@H](CC(=O)O)C(=O)N[C@@H](CCCCN)C(=O)N[C@@H](CC(=O)O)C(=O)N[C@@H](CCCCN)C(=O)N[C@@H](CC(=O)O)C(=O)N[C@@H](CC(N)=O)C(=O)N[C@H](C(=O)N[C@@H](C)C(=O)N1CCC[C@H]1C(=O)N[C@@H](CCCNC(=N)N)C(=O)N[C@@H](CO)C(=O)O)C(C)C)[C@@H](C)O (H-GGCRFGTCTVQKLAHQIYQFTDKDKDNVAPRS-OH; disulfide 3-8)
CC[C@H](C)[C@H](NC(=O)[C@H](CCC(N)=O)NC(=O)[C@H](Cc1cnc[nH]1)NC(=O)[C@H](C)NC(=O)[C@H](CC(C)C)NC(=O)[C@H](CCCCN)NC(=O)[C@H](CCC(N)=O)NC(=O)[C@@H](NC(=O)[C@@H](NC(=O)[C@@H]1CSSC[C@H](NC(=O)CNC(=O)CN)C(=O)N[C@@H](CCCNC(=N)N)C(=O)N[C@@H](Cc2ccccc2)C(=O)NCC(=O)N[C@@H]([C@@H](C)O)C(=O)N1)[C@@H](C)O)C(C)C)C(=O)N[C@@H](Cc1ccc(O)cc1)C(=O)N[C@@H](CCC(N)=O)C(=O)N[C@@H](Cc1ccccc1)C(=O)N[C@H](C(=O)N[C@@H](CC(=O)O)C(=O)N[C@@H](CCCCN)C(=O)N[C@@H](CC(=O)O)C(=O)N[C@@H](CCCCN)C(=O)N[C@@H](CC(=O)O)C(=O)N[C@@H](CC(N)=O)C(=O)N[C@H](C(=O)N[C@@H](C)C(=O)N1CCC[C@H]1C(=O)N[C@@H](CCCNC(=N)N)C(=O)O)C(C)C)[C@@H](C)O (H-GGCRFGTCTVQKLAHQIYQFTDKDKDNVAPR-OH; disulfide 3-8)
CC[C@H](C)[C@H](NC(=O)[C@H](CCC(N)=O)NC(=O)[C@H](Cc1cnc[nH]1)NC(=O)[C@H](C)NC(=O)[C@H](CC(C)C)NC(=O)[C@H](CCCCN)NC(=O)[C@H](CCC(N)=O)NC(=O)[C@@H](NC(=O)[C@@H](N)[C@@H](C)O)C(C)C)C(=O)N[C@@H](Cc1ccc(O)cc1)C(=O)N[C@@H](CCC(N)=O)C(=O)N[C@@H](Cc1ccccc1)C(=O)N[C@H](C(=O)N[C@@H](CC(=O)O)C(=O)N[C@@H](CCCCN)C(=O)N[C@@H](CC(=O)O)C(=O)N[C@@H](CCCCN)C(=O)N[C@@H](CC(=O)O)C(=O)N[C@@H](CC(N)=O)C(=O)N[C@H](C(=O)N[C@@H](C)C(=O)N1CCC[C@H]1C(=O)N[C@@H](CCCNC(=N)N)C(=O)N[C@@H](CO)C(=O)N[C@@H](CCCCN)C(=O)N[C@H](C(=O)N[C@@H](CO)C(=O)N1CCC[C@H]1C(=O)N[C@@H](CCC(N)=O)C(=O)NCC(=O)N[C@@H](Cc1ccc(O)cc1)C(N)=O)[C@@H](C)CC)C(C)C)[C@@H](C)O
